Source: ChEMBL document CHEMBL1121855, “Potential salicylamide antiplaque agents: in vitro antibacterial activity against Actinomyces viscosus” (J Med Chem, 1981)
Converted amounts (≈) assume the structure as drawn.

Assays:
[1] = test system: Actinomyces viscosus; assay: In vitro antibacterial activity against Actinomyces viscosus M-100-2000; type: functional
[2] = test system: Actinomyces naeslundii; assay: In vitro antibacterial activity against Actinomycetes naeslundii 12104; type: functional
[3] = test system: Actinomyces israelii; assay: In vitro antibacterial activity against Actinomycetes israelii 28360; type: functional
[4] = test system: Actinomyces naeslundii; assay: In vitro antibacterial activity against Actinomycetes naeslundii 8115; type: functional
[5] = test system: Actinomyces israelii; assay: In vitro antibacterial activity against Actinomycetes israelii 12836; type: functional
[6] = test system: Actinomyces israelii; assay: In vitro antibacterial activity against Actinomycetes israelii 10048; type: functional
[7] = test system: Actinomyces viscosus; assay: In vitro antibacterial activity against Actinomycetes viscosus T14V; type: functional
[8] = Dissociation constant is the negative logarithm of the equilibrium coefficient of the neutral and charged forms of the compound; type: physicochemical
[9] = Observed inhibitory activity against various Actinomycetes strains; details: actinomycetaceae
[10] = Distribution coefficient between octanol and aqueous phase at pH7.2; type: physicochemical; details: pH 7.2
[11] = Partition coefficient is determined in octanol/buffer solution; type: physicochemical; details: octanol/buffer; read-out: logP

MIC [1] [µg/mL] | pKa [8] | Log 1/MIC [9] | logD [10] | logP [11] | SMILES | also measured
0.1 (≈ 0.26 µM) |  |  |  |  | CCCCCCCC(=O)c1ccc(O)c(C(=O)Nc2ccc([N+](=O)[O-])cc2)c1 | 
> 20 |  |  |  |  | O=C(NCCCCCCNC(=O)c1cc(Br)ccc1O)c1cc(Br)ccc1O | 
3 (≈ 8.9 µM) | 5.8 | 5.05 | 3.16 | 4.58 | O=C(Nc1ccc(Br)cc1)c1cc([N+](=O)[O-])ccc1O | 
0.1 (≈ 0.287 µM) | 7.35 | 6.54 | 5.88 | 6.09 | CCCCc1ccc(O)c(C(=O)Nc2ccc(Br)cc2)c1 | 
0.5 (≈ 1.35 µM) | 6.85 | 5.87 | 4.75 | 5.26 | O=C(Nc1ccc(Br)cc1)c1cc(Br)ccc1O [DIBROMSALAN] | 
1.5 (≈ 4.49 µM) | 7.35 | 5.35 | 5.38 | 5.61 | CCCc1ccc(O)c(C(=O)Nc2ccc(Br)cc2)c1 | 
> 40 |  |  |  |  | COc1ccc(NC(=O)c2cc(C)ccc2O)cc1 | 
1.7 (≈ 3.68 µM) |  |  |  |  | O=C(Nc1nc2c(Cl)cccc2s1)c1cc(Br)cc(Br)c1O | 
0.5 (≈ 1.48 µM) |  |  |  |  | CCCCc1ccc(O)c(C(=O)Nc2cccc(C(F)(F)F)c2)c1 | 
1 (≈ 2.56 µM) | 6.1 | 5.6 | 4.88 | 6.02 | CCCCCC(=O)c1ccc(O)c(C(=O)Nc2ccc(Br)cc2)c1 | 
45 (≈ 128 µM) | 5.6 | 3.94 | 3.46 | 5.06 | Cc1cc(C(=O)Nc2ccc(Br)cc2)c(O)c([N+](=O)[O-])c1 | 
100 (≈ 254 µM) |  |  |  |  | Cc1nnc(NC(=O)c2cc(Br)cc(Br)c2O)s1 | 
12 (≈ 30.7 µM) |  |  |  |  | O=C(NCC1CCCCC1)c1cc(Br)cc(Br)c1O | 
0.5 (≈ 1.4 µM) |  |  |  |  | CCCCCCc1ccc(O)c(C(=O)NCc2cccc([N+](=O)[O-])c2)c1 | 
10 (≈ 34.2 µM) | 7.1 | 4.47 | 3.78 | 4.13 | O=C(Nc1ccc(Br)cc1)c1ccccc1O | 
95 (≈ 251 µM) |  |  |  |  | O=C(Nc1nccs1)c1cc(Br)cc(Br)c1O | 
13 (≈ 37.3 µM) | 6.1 | 4.43 | 3.38 | 4.52 | CCC(=O)c1ccc(O)c(C(=O)Nc2ccc(Br)cc2)c1 | 
0.5 (≈ 1.2 µM) |  |  |  |  | O=C(Nc1ccc([N+](=O)[O-])cc1)c1cc(Br)cc(Br)c1O | 
0.5 (≈ 1.23 µM) |  |  |  |  | CCCCCCCC(=O)c1ccc(O)c(C(=O)Nc2cccc(C(F)(F)F)c2)c1 | 
0.5 (≈ 1.11 µM) |  |  |  |  | CCCCCCCCCC(=O)c1ccc(O)c(C(=O)NCc2ccc(Cl)c(Cl)c2)c1 | 
> 155 |  |  |  |  | Cc1cccnc1NC(=O)c1cc(Br)cc(Br)c1O | 
> 25 |  |  |  |  | COc1ccc(O)c(C(=O)Nc2ccc(Br)cc2)c1 | 
5 (≈ 18.4 µM) |  |  |  |  | Cc1ccc(O)c(C(=O)Nc2ccc([N+](=O)[O-])cc2)c1 | 
5 (≈ 10.5 µM) |  |  |  |  | CCCCCCCCCCCC(=O)c1ccc(O)c(C(=O)NCc2ccc(Cl)c(Cl)c2)c1 | 

SMILES | MIC [1] [µg/mL] | pKa [8] | Log 1/MIC [9] | logD [10] | logP [11] | also measured
CCCCCCCCCC(=O)c1ccc(O)c(C(=O)Nc2ccc([N+](=O)[O-])cc2)c1 | 0.05 (≈ 0.121 µM) |  |  |  |  | MIC [2]: 0.5 µg/mL (≈ 1.21 µM); MIC [3]: 0.05 µg/mL (≈ 0.121 µM); MIC [4]: 0.05 µg/mL (≈ 0.121 µM); MIC [5]: 0.05 µg/mL (≈ 0.121 µM); MIC [6]: 0.05 µg/mL (≈ 0.121 µM); MIC [7]: 0.05 µg/mL (≈ 0.121 µM)
O=C(Nc1ccc(Br)cc1)c1cc(Br)cc(Br)c1O [TRIBROMSALAN] | 0.5 (≈ 1.11 µM) | 5.85 | 5.95 | 4.78 | 6.15 | MIC [2]: 1 µg/mL (≈ 2.22 µM); MIC [3]: 5 µg/mL (≈ 11.1 µM); MIC [4]: 1 µg/mL (≈ 2.22 µM); MIC [5]: 0.5 µg/mL (≈ 1.11 µM); MIC [6]: 1 µg/mL (≈ 2.22 µM); MIC [7]: 1 µg/mL (≈ 2.22 µM)
Cc1ccc(O)c(C(=O)Nc2ccc(Br)cc2)c1 | 2.5 (≈ 8.17 µM) | 7.35 | 5.09 | 4.38 | 4.61 | MIC [7]: 5.2 µg/mL (≈ 17 µM)
